Here are results for 2 compounds from patent US20090082400A1, “SOLUBLE PYRONE ANALOGS METHODS AND COMPOSITIONS” (priority 2007, published 2009).

Data set [1] in a line: Fisetin-sulfobutylether-7-β-cyclodextrin solution: concentration and precipitation. Particulars: approximately 1:2.5 molar ratio of fisetin to Captisol; pH 7.8-7.9. The class given is physicochemical. As to the method:
Captisol™ (17.9 g) is dissolved in 55 ml of distilled (or deionized) water. Fisetin (anhydrous) (965 mg) is then added to the above solution. The mixture is stirred vigorously followed by sonication if necessary to break up any clumps so that a homogeneous suspension is obtained.
While stirring vigorously, a 1 N NaOH solution (12.0 ml) is added slowly and for the formation of the fisetin-Captisol inclusion complex. The resulting solution will be at about pH 12.5 and may have an orange-brown color. The solution is not kept long at this pH, and is quickly neutralized in the following step.
While stirring, add 1N HCl solution (9 ml) dropwise to attain pH to 7.8-7.9. The final solution may be light-yellow to light orange in color. In some cases, the pH can be brought to below pH 7.8. […] Add water to a final volume of 100 ml.
This solution will contain approximately a 1:2.5 molar ratio of fisetin to Captisol. This procedure is for preparing an approximately 9.47 mg/ml fisetin solution. In some cases, the solution can be further diluted to make a solution for injection or for oral administration, for example, by diluting with either 0.9% saline solution and/or with a solution containing dextrose.

Data set [2] is described as follows: Sulfobutylether-7-β-cyclodextrin-quercetin aqueous composition: concentration and storage stability. The class given is physicochemical. Particulars: quercetin at 10 mg/ml in water with sulfobutylether-7-β-cyclodextrin. As to the method:
The flask is placed in an ice bath. […] Into the flask, 12 ml of 1 N sodium hydroxide is added over about 5 to 10 minutes. […] Into the flask is then added 10.5 ml of hydrochloric acid over 5 to 10 minutes at a slow enough rate to avoid precipitation. During the addition of the sodium hydroxide and the hydrochloric acid, the temperature is maintained at less than 20° C. DI water is then added to give total volume of 100 ml.

The conditions of data set [3]: in vivo; cited from earlier work.
The conditions of data set [4]: Zheng, et al. J. Pharm. Sci. 94(5), 2005; cited from earlier work.

Entries after “also recorded” stand apart in the source; their conditions may differ.

In the case of `O=c1c(O)c(-c2ccc(O)c(O)c2)oc2cc(O)ccc12` [fisetin], the “fisetin concentration of the solution” value in data set [1] is listed as “approximately 9.47 mg/ml”.
For the compound `O=c1c(O)c(-c2ccc(O)c(O)c2)oc2cc(O)cc(O)c12` [quercetin], in data set [2], the stability without precipitation entry is “stable for more than two weeks without precipitation”. Besides, the serum half-life in data set [3] is 19 to 25 h. Further, in data set [4], the “stability in aqueous solution as a function of pH” value is given as “stable below pH 3; also recorded: degradation of quercetin above pH 5 became apparent”.
